According to US5821261A, “Substituted saturated aza heterocycles as inhibitors of nitric oxide synthase” (Merck & Co., Inc., priority 1996, dated 1998):
Structures can show the parent of a compound that is named as a salt.

Molecular target: Human Inducible Nitric Oxide Synthase (Homo sapiens, UniProt P35228)
Assay: Inhibition of human inducible nitric oxide synthase (formation of L-[2,3,4,5-3H]citrulline from L-[2,3,4,5-3H]arginine)
Assay type: biochemical
Settings: 1 μM L-Arg, pH 7.5, room temperature, 30 minutes, aqueous DMSO (max. 5%)
Description: 26, pp. 258-264. […] J Lowenstein and S. H. Snyder in Methods in Enzymology, Vol. 233, L. Packer, ed., Academic Press, NY, 1994, Ch. 26, pp. 264-269. Various assays for NOS activity have been reported in the literature and are reviewed in the following: M. E. Murphy and E. Noack in Methods in Enzymology, Vol. 233, L. Packer, ed., Academic Press, NY, 1994, Ch. 26, pp. 240-250 and J. M. Hevel and M. A. Marletta in Methods in Enzymology, Vol. 233, L. Packer, ed., Academic Press, NY, 1994, Ch. 26, pp. 250-258. Details for the assay protocols to measure NOS activity are as follows: […] The incubation buffer (100 μL) contained; 100 mM TES, pH 7.5, 5 μM FAD, 5 μM FMN, 10 μM BH4, 0.5 mM NADPH, 0.5 mM DTT, 0.5 mg/mL BSA, 2 mM CaCl2, 10 μg/mL calmodulin (bovine), 1 μM L-Arg, 0.2 μCi L-[2,3,4,5-^3 H]Arg, and the inhibitor in aqueous DMSO (max. 5%). The reaction is initiated by addition of enzyme. Incubations are performed at room temperature for 30 minutes and stopped by the addition of an equal volume of quenching buffer consisting of 200 mM sodium citrate, pH 2.2, 0.02% sodium azide. Reaction products are separated by passing through a cation exchange resin and quantitated as cpm by scintillation counting. Percent inhibition is calculated relative to enzyme incubated without inhibitor according to: […]. Illustrative of the utility of the compounds of Formula I is the ability of such compounds to inhibit NO synthase as shown in Table 1 and as measured by the assay described above: […]

SMILES: N=C(N)NC[C@@H]1CN[C@H](C(=O)O)C1 [compound 1, (4S)-4-(Guanidinomethyl)-L-Proline Dihydrochloride]
- IC50: 7.1 µM

SMILES: N=C(N)NC[C@H]1CN[C@H](C(=O)O)C1 [compound 2, (4R)-4-(Guanidinomethyl)-L-Proline Dihydrochloride]
- IC50: 3.5 µM

SMILES: N=C(N)N[C@@H]1CN[C@H](C(=O)O)C1 [compound 3, (4S)-4-Guanidino-L-Proline Dihydrochloride]
- IC50: 2.7 µM

SMILES: N=C(N)SC[C@@H]1CN[C@H](C(=O)O)C1 [compound 5, (4S)-4-[(Isothioureido)methyl]-L-Proline Dihydrochloride]
- IC50: 111 µM

SMILES: COC(=O)[C@@H]1C[C@@H](CNC(=N)N)CN1 [compound 6, (4R)-4-(Guanidinomethyl)-L-Proline Methyl Ester Dihydrochloride]
- IC50: 11 µM
